Type in all cases: cell-based
One experiment concerns the target T1, AKT1 (Homo sapiens, UniProt P31749).
T1 construct: AKT1, AKT2, and AKT3 proteins in H1975-OR cells; endogenous in cells; host or cells: H1975-OR (osimertinib-resistant H1975)
The experiment in a line: Western Blot, degradation of AKT1 protein in H1975-OR cells. The note with it: 1000 nM, 24 hours, maximum degradation rate. The protocol:
(§1) Cell line: Non-small cell lung cancer H1975-OR cell line, which is an Osimertinib resistant H1975 cell line, and could be obtained through low dose gradual addition culture. Specific method: H1975 cells were spread in a 10 cm culture dish at a convergence rate of 60-70%, added 50 nM of Osimertinib to the culture medium. After the cell state stabilized, the concentration of Osimertinib was gradually double to 3 μM.
(§2) Conventional Western Blot (immunoblotting) was used for detection, as follows: a certain number of H1975-OR cells were planted on a 96 well plate, adherent cultured in an incubator overnight, and added a certain concentration of compound to act for 24 hours. 1×SDS lysis buffer with protease and phosphatase inhibitors was used to lyse cells. Cell lysates were separated by SDS-PAGE and transferred to PVDF membrane. Then, at room temperature, the PCDF membrane was taken out and immersed in a sealing solution (5% BSA TBS solution containing 0.5% Tween-20) for sealing treatment for 1 hour, and then incubated with a specific primary antibody at 4° C. overnight. The imprints were washed with TBST and incubated with horseradish peroxidase (HRP) labeled secondary antibodies at room temperature for 2 hours. Finally, ECL plus fluorescence detection reagent (Thermo Scientific, Waltham, MA) was used for protein development, and the Amersham Imager 600 system (GE, America) was used for photography. The detection results were processed using ImageJ software to obtain the grayscale value G (Density).

The next experiment deals with T2, AKT2 (Homo sapiens, UniProt P31751).
T2 construct: AKT1, AKT2, and AKT3 proteins in H1975-OR cells; endogenous in cells; host or cells: H1975-OR (osimertinib-resistant H1975)
The experiment in a line: Western Blot, degradation of AKT2 protein in H1975-OR cells. The note with it: 1000 nM, 24 hours, maximum degradation rate. The protocol: as §1, §2

The next experiment has as its target AKT3 (Homo sapiens, UniProt Q9Y243). The experiment in a line: Western Blot, degradation of AKT3 protein in H1975-OR cells. Details: endogenous in cells; host or cells: H1975-OR (osimertinib-resistant H1975). Conditions: 1000 nM, 24 hours, maximum degradation rate. The protocol: as §1, §2
The test system of the next experiment is H1975. In words: CCK-8 tumor cell proliferation, H1975. The note with it: Homo sapiens, NCI-H1975, H1975 cells, 72 hours. The protocol:
(§3) Tumor cells (see Table 2 to Table 5) were inoculated in 96-well plates in complete culture medium (2000-3000 cells/well). After overnight incubation, the compounds with different concentrations (0.000508 μM-10 μM) were used to treat the cells separately for 72 hours. CCK-8 (Cell Counting Kit 8, Dojindo Laboratories, Kumamoto, Japan) experiment was used to evaluate cell proliferation. GraphPad Prism 5.0 software (La Jolla, CA) was used to calculate the half-maximal inhibitory concentration (IC50) values by fitting the concentration response curve. Each IC50 value was represented as an average value±SD.

Another experiment deals with H1975OR. In words: CCK-8 tumor cell proliferation, H1975OR. Conditions: H1975OR cells (Osimertinib resistant), 72 hours. As for the experimental part: as §1, §3

Structures are written as SMILES.

Sequence of AKT3 (Q9Y243 whole entry): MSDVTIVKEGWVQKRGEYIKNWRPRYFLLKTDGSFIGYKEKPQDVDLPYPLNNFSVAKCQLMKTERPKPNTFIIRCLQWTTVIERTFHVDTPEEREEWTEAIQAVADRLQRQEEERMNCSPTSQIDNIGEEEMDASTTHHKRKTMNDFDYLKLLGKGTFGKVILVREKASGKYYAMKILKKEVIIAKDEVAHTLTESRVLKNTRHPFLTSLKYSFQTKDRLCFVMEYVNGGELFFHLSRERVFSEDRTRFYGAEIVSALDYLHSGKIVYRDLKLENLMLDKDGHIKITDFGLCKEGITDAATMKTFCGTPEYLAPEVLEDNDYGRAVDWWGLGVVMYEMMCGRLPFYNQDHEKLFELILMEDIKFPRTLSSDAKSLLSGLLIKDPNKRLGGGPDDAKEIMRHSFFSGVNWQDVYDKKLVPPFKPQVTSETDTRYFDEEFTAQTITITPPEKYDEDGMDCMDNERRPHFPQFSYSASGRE
T1 sequence (P31749 whole entry): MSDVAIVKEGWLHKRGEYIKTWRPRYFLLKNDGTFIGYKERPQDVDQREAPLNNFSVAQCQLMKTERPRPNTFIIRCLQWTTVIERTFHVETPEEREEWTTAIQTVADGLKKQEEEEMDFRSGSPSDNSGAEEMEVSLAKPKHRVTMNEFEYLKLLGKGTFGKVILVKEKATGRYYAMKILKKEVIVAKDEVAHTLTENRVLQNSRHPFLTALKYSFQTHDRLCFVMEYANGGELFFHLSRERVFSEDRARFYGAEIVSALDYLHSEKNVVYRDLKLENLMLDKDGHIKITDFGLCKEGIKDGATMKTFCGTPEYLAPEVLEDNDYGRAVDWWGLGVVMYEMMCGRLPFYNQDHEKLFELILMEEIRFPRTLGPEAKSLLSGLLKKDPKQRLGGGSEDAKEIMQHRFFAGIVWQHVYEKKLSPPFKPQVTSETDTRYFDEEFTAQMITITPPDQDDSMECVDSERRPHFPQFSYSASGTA
T2 sequence (P31751 whole entry): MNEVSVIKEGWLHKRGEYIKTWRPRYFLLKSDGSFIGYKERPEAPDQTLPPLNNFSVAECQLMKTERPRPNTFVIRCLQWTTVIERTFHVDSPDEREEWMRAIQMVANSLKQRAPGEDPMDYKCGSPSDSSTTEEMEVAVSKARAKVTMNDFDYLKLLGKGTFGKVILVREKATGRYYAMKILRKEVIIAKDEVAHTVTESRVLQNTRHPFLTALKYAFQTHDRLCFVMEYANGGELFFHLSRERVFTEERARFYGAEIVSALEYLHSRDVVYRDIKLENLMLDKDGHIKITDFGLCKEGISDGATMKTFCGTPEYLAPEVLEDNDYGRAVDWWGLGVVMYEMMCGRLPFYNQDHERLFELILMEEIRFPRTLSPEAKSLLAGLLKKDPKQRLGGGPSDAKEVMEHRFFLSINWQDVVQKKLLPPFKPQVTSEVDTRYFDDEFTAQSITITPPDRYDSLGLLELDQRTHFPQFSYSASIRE

Take `CCc1cccc(-n2c(=O)cc(C)c3cnc(Nc4ccc(N5CCN(CCCCCCCCCCCCNC(=O)CC67CC8CC(CC(C8)C6)C7)CC5)cc4OC)nc32)c1` [ZX-HYT-16, 2-((3R, 5R, 7R)-adamantan-1-yl)-N-(12-(4-(4-(8-(3-ethylphenyl)-5-methyl-7-oxy-7,8-dihydropyridino [2,3-d]pyrimidin-2-yl)amino)-3-methoxyphenyl)piperazin-1-yl) dodecyl) acetamide]: the greatest degradation seen (Dmax) at 1 µM at AKT1 was 0%; at AKT2 it was 31.4%; on AKT3, 70.3%.

For the compound `COc1cc(N2CCN(CCCCCCCCCCCCNC(=O)CC34CC5CC(CC(C5)C3)C4)CC2)ccc1Nc1ncc2c(C)cc(=O)n(-c3cccc(NC4CCN(C)CC4)c3)c2n1` [ZX-HYT-18, 2-((3R, 5R, 7R)-adamantan-1-yl)-N-(12-(4-(3-methoxy-4-(5-methyl-8-(3-(1-methylpipe-4-yl)amino)phenyl)-7-oxo-7,8-dihydropyridino [2,3-d]pyrimidin-2-yl)amino)phenyl) piperazin-1-yl) dodecyl) acetamide], the Dmax at 1 µM on AKT1 turned out to be 0%; on AKT2, 0%; at AKT3, 30.6%.

Regarding `COc1cc(N2CCN(CCCCCCCCCCCCNC(=O)CC34CC5CC(CC(C5)C3)C4)CC2)ccc1Nc1ncc2c(C)cc(=O)n([C@H]3CCC[C@@H](C(=O)NC4CC4)C3)c2n1` [ZX-HYT-21, (1R, 3S)-3-(2-(4-(4-(12-(2-(((3R, 5R, 7R)-adamantan-1-yl)acetylamino)dodecyl)piperazin-1-yl)-2-methoxyphenyl)amino)-5-methyl-7-oxypyridino [2,3-d]pyrimidin-8 (7H)-yl)-N-cyclopropylcyclohexane-1-carboxylamide], the greatest degradation seen (Dmax) at 1 µM at AKT1 amounted to 0%; at AKT2, 0%; at AKT3, 6.8%.

Regarding `COc1cc(N2CCN(CCCCCCCCCCCCNC(=O)CC34CC5CC(CC(C5)C3)C4)CC2)ccc1Nc1ncc2c(C)cc(=O)n([C@H]3CCCN(C(=O)C4CC4)C3)c2n1` [ZX-HYT-22], the greatest degradation seen (Dmax) at 1 µM on AKT1 came out at 0%; at AKT2 it was 0%; at AKT3, 25%. Moreover, the results for the IC50 in the experiment on H1975 and in the experiment on H1975OR were 0.014 µM and 0.00682 µM, respectively.

Consider `COc1cc(N2CCN(CCCCCCCCCCCCNC(=O)CC34CC5CC(CC(C5)C3)C4)CC2)ccc1Nc1ncc2c(C)cc(=O)n([C@H]3CCC[C@@H](NC(=O)C4CC4)C3)c2n1` [ZX-HYT-23], for which the Dmax at 1 µM on AKT1 was found to be 0%; at AKT2 it was 0%; on AKT3 it was 41.4%.

Take `COc1cc(OCCOCCCCCCCCCCCCNC(=O)CC23CC4CC(CC(C4)C2)C3)ccc1Nc1ncc2c(C)cc(=O)n(-c3cccc(NC(=O)C4CC4)c3)c2n1` [ZX-HYT-27, N-(3-(2-(4-(2-((12-(2-(((3R, 5R, 7R)-adamantan-1-yl)acetylamino)dodecyl)oxy)ethoxy)-2-methoxyphenyl)amino)-5-methyl-7-oxypyridino [2,3-d]pyrimidin-8 (7H)-yl)phenyl) cyclopropaneformamide]: the maximal degradation (Dmax) at 1 µM on AKT1 turned out to be 0%; at AKT2 it was 30.2%; on AKT3 it was 76.3%. Also, the IC50 with H1975 came to 7.84 ± 1.35 µM; in the experiment with H1975OR, 1.67 ± 0.69 µM.

As for `COc1cc(OCCCCCCCCCCCCNC(=O)CC23CC4CC(CC(C4)C2)C3)ccc1Nc1ncc2c(C)cc(=O)n(-c3cccc(NC(=O)C4CC4)c3)c2n1` [ZX-HYT-28, N-(3-(2-((4-((12-(2-((3R, 5R, 7R)-adamantan-1-yl)acetylamino)dodecyl)oxy)-2-methoxyphenyl)amino)-5-methyl-7-oxypyrimidino [2,3-d]pyrimidin-8 (7H)-yl)phenyl) cyclopropane formamide], the values for the 50% inhibitory concentration (IC50) with H1975 and with H1975OR were 0.645 µM and 0.177 µM, respectively.

Turning to `CCCCCCCCN1CCN(c2ccc(Nc3ncc4c(C)cc(=O)n(-c5cccc(NC(=O)C6CC6)c5)c4n3)c(OC)c2)CC1` [ZX-HYT-30, N-(3-(2-((2-methoxy-4-(4-octylpiperazin-1-yl)phenyl)amino)-5-methyl-7-oxypyridino [2,3-d]pyrimidin-8 (7H)-yl)phenyl) cyclopropane formamide], the greatest degradation seen (Dmax) at 1 µM on AKT1 was found to be 40.5%; at AKT2, 37.1%; on AKT3, 51.9%. Also, the half-maximal inhibitory concentration (IC50) with H1975 was over 10 µM; in the experiment on H1975OR, 8.84 ± 2.17 µM.

For the compound `COc1cc(N2CCN(CCCCCCCCN)CC2)ccc1Nc1ncc2c(C)cc(=O)n(-c3cccc(NC(=O)C4CC4)c3)c2n1` [ZX-HYT-31], the Dmax at 1 µM on AKT1 came out at 0%; at AKT2, 30.6%; at AKT3 it was 55.5%. Further, the concentration for half-maximal inhibition (IC50) with H1975 is 0.145 ± 0.101 µM; with H1975OR, 0.217 ± 0.0367 µM.

As to `COc1cc(N2CCN(CCCCCCCCNC(=O)[C@@]34CC5C[C@@](C)(C[C@@](C)(C5)C3)C4)CC2)ccc1Nc1ncc2c(C)cc(=O)n(-c3cccc(NC(=O)C4CC4)c3)c2n1` [ZX-HYT-32], the maximal degradation (Dmax) at 1 µM at AKT1 worked out at 0%; on AKT2 it was 24.3%; on AKT3 it was 45.2%. Moreover, the half-maximal inhibitory concentration (IC50) in the experiment with H1975 was 1.02 ± 0.24 µM; in the experiment with H1975OR, 0.21 ± 0.04 µM.

In the case of `COc1cc(N2CCN(CCCCCCCCNC(=O)CC(C)(C)C)CC2)ccc1Nc1ncc2c(C)cc(=O)n(-c3cccc(NC(=O)C4CC4)c3)c2n1` [ZX-HYT-33], the greatest degradation seen (Dmax) at 1 µM is 0% at AKT1, 43.7% on AKT2 and 55.3% at AKT3. Besides, the 50% inhibitory concentration (IC50) turned out to be 2.31 ± 0.52 µM with H1975 and 0.44 ± 0.14 µM with H1975OR.

For `COc1cc(N2CCN(CCCCCCCCNC(=O)C3CCC(F)(F)CC3)CC2)ccc1Nc1ncc2c(C)cc(=O)n(-c3cccc(NC(=O)C4CC4)c3)c2n1` [ZX-HYT-34], the maximal degradation (Dmax) at 1 µM on AKT1 came to 55.4%; on AKT2 it was 67.5%; at AKT3, 56.6%. The IC50 with H1975 stood at 1.15 ± 0.42 µM; in the experiment with H1975OR, 0.25 ± 0.12 µM.

Regarding `COc1cc(N2CCN(CCCCCCCCNC(=O)C34CC5CC(CC(C5)C3)C4)CC2)ccc1Nc1ncc2c(C)cc(=O)n(-c3cccc(NC(=O)C4CC4)c3)c2n1` [ZX-HYT-35, (3R,5R,7R)—N-(8-(4-(4-((8-(3-(cyclopropaneformamide)phenyl)-5-methyl-7-oxy-7,8-dihydropyridino [2,3-d-dipyrimidin-2-yl)amino)-3-methoxyphenyl)piperazin-1-yl)octyl)adamantan-1-carboxylamide], the values for the maximal degradation (Dmax) at 1 µM on AKT1, at AKT2 and at AKT3 were 42.2%, 39.1% and 43.4%, respectively. Also, the half-inhibitory concentration (IC50) with H1975 is 2.59 ± 0.2 µM; in the experiment with H1975OR it was 0.32 ± 0.04 µM.

As for `COc1cc(N2CCN(CCCCCCCCCCCCNC(=O)CC34CC5CC(CC(C5)C3)C4)CC2)ccc1Nc1ncc2c(C)cc(=O)n(-c3ccccc3)c2n1` [ZX-HYT-36, 2-((3R, 5R, 7R)-adamantan-1-yl)-N-(12-(4-(3-methoxy-4-((5-methyl-7-oxy-8-phenyl-7,8))-dihydropyridino [2,3-d]pyrimidin-2-yl)amino)phenyl) piperazin-1-yl) dodecyl) acetamide], the Dmax at 1 µM on AKT1 amounted to 0%; at AKT2, 0%; at AKT3, 12.3%. Besides, the values for the IC50 with H1975 and in the experiment on H1975OR were 0.219 ± 0.0782 µM and 0.107 ± 0.008 µM, respectively.

Take `COc1cc(N2CCN(CCCCCCCCCCCCNC(=O)CC34CC5CC(CC(C5)C3)C4)CC2)ccc1Nc1ncc2c(C)cc(=O)n([C@H]3CCN(C(=O)C4CC4)C3)c2n1` [ZX-HYT-37]: the maximal degradation (Dmax) at 1 µM stood at 0% at AKT1, 0% on AKT2 and 17.5% at AKT3. In addition, the 50% inhibitory concentration (IC50) in the experiment on H1975 amounted to 4.15 ± 0.462 µM; in the experiment on H1975OR, 6.31 ± 0.645 µM.

Take `COc1cc(OCCOCCCCCCCCCCCCOCCC23CC4CC(CC(C4)C2)C3)ccc1Nc1ncc2c(C)cc(=O)n(-c3cccc(NC(=O)C4CC4)c3)c2n1` [ZX-HYT-38, N-(3-(2-((4-(2-((12-(2-((3R, 5R, 7R)-adamantan-1-yl)ethoxy)dodecyl)oxy)ethoxy)-2-methoxyphenyl)amino)-5-methyl-7-oxypyridino [2,3-d]pyrimidin-8 (7H)-yl)phenyl) cyclopropane formamide]: the Dmax at 1 µM is 0% on AKT1, 0% on AKT2 and 16.2% on AKT3.

Source of the values: patent US20240132492A1, “PYRIDOPYRIMIDINE-BASED COMPOUND AND APPLICATION THEREOF” (JINAN UNIVERSITY, priority 2021, published 2024).
